Test results published in patent US6696407B1, “Huntington's disease treatment comprising administering aldose reductase inhibitors to increase striatal CNTF” (The Regents of the University of California, priority 1997, dated 2004).
Marks after values point to notes of the source that are not given here.

Columns and labels:
Assay type in all cases: in vivo, rat
CNTF mRNA = experiment: Sciatic nerve CNTF mRNA by Northern blot; conditions: control and galactose-fed rats
Procedure: These studies were conducted with the approval of the San Diego Veterans Administration Animal Studies Subcommittee. Female Sprague-Dawley rats (240-300 g; Charles River, San Diego, Calif.) were housed in cages with wire bottoms to reduce contact with urine and feces. Groups were established and fed either a 40% D-galactose diet or a control diet specially formulated by Purina that contained 40% solka floc, a nonnutritive fiber, to balance nutritional intake. All diets contained 100% of the micronutrients required by rats and, with water, were available ad libitum. Each of these diet groups contained animals that were treated with the ARI, Ponalrestat (50 mg/kg), daily by oral gavage. […] Under deep anesthesia, motor nerve conduction velocity (MNCV) was measured in the left hindlimb prior to removal of the sciatic nerve. […]
CNTF mRNA levels in sciatic nerve were obtained by first homogenizing 1 cm segments of nerve on ice for 30 seconds in 4 M guanidine thiocyanate containing 0.1 M β-mercaptoethanol, 25 mM sodium citrate and 0.5% sarcosyl (pH 7.0). […] Autoradiographic bands were quantified using an Ultrascan XL laser densitometer (LKB, Uppsala, Sweden). Ratios of CNTF:GAPDH were determined using optical densities in the linear range for both probes.

aldose reductase = experiment: Sciatic nerve polyol content by gas chromatography
Procedure: These studies were conducted with the approval of the San Diego Veterans Administration Animal Studies Subcommittee. Female Sprague-Dawley rats (240-300 g; Charles River, San Diego, Calif.) were housed in cages with wire bottoms to reduce contact with urine and feces. Groups were established and fed either a 40% D-galactose diet or a control diet specially formulated by Purina that contained 40% solka floc, a nonnutritive fiber, to balance nutritional intake. All diets contained 100% of the micronutrients required by rats and, with water, were available ad libitum. Each of these diet groups contained animals that were treated with the ARI, Ponalrestat (50 mg/kg), daily by oral gavage. After two months, rats were anesthetized by intraperitoneal injection (1 ml/kg ip) of pentobarbital sodium (12.5 mg/ml) and diazepam (1.25 mg/ml) in bacteriostatic saline. Under deep anesthesia, motor nerve conduction velocity (MNCV) was measured in the left hindlimb prior to removal of the sciatic nerve. The proximal portion was processed for subsequent light microscopic examination and the distal portion used for gas chromatographic analysis of nerve polyols. The contralateral sciatic nerve was removed and used for assay of CNTF-like neurotrophic activity and either Northern blot or ELISA analysis of CNTF mRNA or protein, respectively.
For determination of water content and dry weight, distal segments of sciatic nerve were lightly blotted, weighed prior to freeze-drying and reweighed. Nerve polyols were measured by gas chromatography with α-methylmannoside as an internal standard (Mizisin et al., (1993) J. Neurol. Sci. 116:67-72) using a Hewlett Packard 5890 gas chromatograph (Hewlett Packard, Avondale, Pa.) fitted with a flame ionization detector and a 25 m×0.2 mm capillary column (Hewlett Packard Ultra 1). Nerve water and polyol contents are expressed as mg and nmol per mg nerve dry weight, respectively.
Data are presented as mean ±SD (N=8 to 10) and were analyzed with a one way ANOVA after which multiple comparisons were made with the Student-Newman-Keuls test. Mean dulcitol levels were compared with an unpaired, two-tailed t test. Control and animals received a diet containing 0% D-galactose and galactose animals a diet containing 40% D-galactose for two months.

[1] = Motor nerve conduction velocity (MNCV); conditions: Ponalrestat 50 mg/kg daily oral, two months
Procedure: These studies were conducted with the approval of the San Diego Veterans Administration Animal Studies Subcommittee. Female Sprague-Dawley rats (240-300 g; Charles River, San Diego, Calif.) were housed in cages with wire bottoms to reduce contact with urine and feces. Groups were established and fed either a 40% D-galactose diet or a control diet specially formulated by Purina that contained 40% solka floc, a nonnutritive fiber, to balance nutritional intake. All diets contained 100% of the micronutrients required by rats and, with water, were available ad libitum. Each of these diet groups contained animals that were treated with the ARI, Ponalrestat (50 mg/kg), daily by oral gavage. […] Under deep anesthesia, motor nerve conduction velocity (MNCV) was measured in the left hindlimb prior to removal of the sciatic nerve. […] Evoked responses were recorded with needle electrodes placed in the interosseous muscles of the ipsilateral foot, amplified (×100) with a P15 AC Amplifier (Grass Instruments Co, Quincy, Mass.) and recorded on a 5110 Storage Oscilloscope and 5D10 Waveform Digitizer (Tektronix, Inc., Beaverton, Oreg.). […] Data are presented as mean ±SD (N=8 to 10) and were analyzed with a one way ANOVA after which multiple comparisons were made with the Student-Newman-Keuls test. […] ARI-treated animals received a daily oral gavage (50 mg/kg) of Ponalrestat (ND-Not detected).

[2] = sciatic nerve, 40% D-galactose diet rats, Ponalrestat 50 mg/kg daily oral, two months

Structure (SMILES): O=C(O)Cc1nn(Cc2ccc(Br)cc2F)c(=O)c2ccccc12 [Ponalrestat, 3-(4-bromo-2-fluorobenzyl)-4-oxo-3H-phthalazin-1-ylacetic acid]
- Level of CNTF message, CNTF:GAPDH ratios (CNTF mRNA): no marked effect
- Dulcitol accumulation (in words) (aldose reductase; galactose-fed rats): attenuated
- Nerve myo-inositol content (in words) (aldose reductase; galactose-fed rats): restored
- Dulcitol (aldose reductase; [2]): 12.2 ± 3.8 nmol/mg dry wt
- myo-Inositol (aldose reductase; [2]): 9.4 ± 1.9^a nmol/mg dry wt
- myo-Inositol (aldose reductase; sciatic nerve, control diet rats, Ponalrestat 50 mg/kg daily oral, two months): 12.3 ± 1.5^b nmol/mg dry wt
- MNCV ([1]; 40% D-galactose diet rats): 64.8 ± 5.1^a m/s
- MNCV ([1]; control diet rats): 63.9 ± 4.0^a m/s
